In data set [1] the test system is isolated rabbit heart. Nature of the data set: Vasodilatory effect on isolated rabbit heart with vasopressin-induced spasm (coronary perfusion pressure). The method, then:
All nitroderivatives induce a tolerance phenomenon but the degree of the lack of the vasodilatory effect was lesser in the case of isosorbide 2-nitroderivative. […] Isolated rabbit hearts and aortic strips were used as experimental model to evaluate drugs acting on coronary resistance and vascular contractility.
Vasodilatory effect was evaluated on isolated rabbit heart in presence of vasopressin-induced spasm by using concentration of 10⁻⁵M of the tested compounds.

Data set [2] has as its system cyclic GMP. The data set is described as follows: Cyclic GMP accumulation in laboratory tests. The text has this: It has been furthermore shown through the laboratory tests that no relationship between the amount of the measured cyclic guanine mono-phosphate (GMP) and the extent of the inhibitory effect can be observed.
In our experiments, the development of nitrate tolerance seems to be related to cyclic GMP accumulation, being greater in the case of NTG, thus confirming that SH groups consumption is the molecular mechanism responsible for this phenomenon.

Data set [3] is described as follows: Long-period stability of active principle in tablets.
The nature of data set [4]: Clinical trials of tongue absorption administration on onset of anginal attack. The note with it: human, in vivo.
Data set [5] can be described thus: Acute treatment by tongue absorption, pulmonary artery pressure by cardiac catheter. The note with it: in vivo.
In data set [6] the test system is rabbit aortic strips. Nature of the data set: Induction of nitrate tolerance in rabbit aortic strips preincubated with nitroderivative.
The nature of data set [7]: Clinical trial, ergometer bicycle effort test before and after two months of chronic 2MN treatment. The following applies: human, in vivo.

“And” between values parts separate entries of the source, which are not always exact repeats. Identical values can stand only once. “Also recorded” adds a separate entry of the source.

This note sets out measurements from patent publication EP0425902A1, “Use of isosorbide 2-mononitrate in the preparation of pharmaceutical compositions for treating angina pectoris” (ISCOFAR Sas di Paolo E. Ghirardi, priority 1989, dated 1991).

On to `O=[N+]([O-])O[C@H]1CO[C@H]2[C@@H]1OC[C@H]2O` [2MN, isosorbide 2-mononitrate], for which, in data set [1], the “activity in reducing coronary perfusion pressure relative to other nitroderivatives” value is “more active than 5MN and ISDN”. Besides, the “cyclic GMP accumulation / increase” value in data set [2] is listed as “lesser increase”. Moreover, the “loss of active principle in the pharmaceutical forms (tablets) in the long period” value in data set [3] is reported as “minimal”. The “effect on anginal attack” value in data set [4] was “able to prevent anginal attack or to cause its rapid regression; also recorded: Analogous results”. In data set [5], the “Activity commences after taking the drug” value fell in the range of 3 to 4 min; the “Activity lasts (average)” value worked out at 80 min; the “Commencement of activity” value is 180 s and 250 s and 230 s and 160 s and 200 s and 210 s and 204.2 s; the “Max decrease in pulmonary artery pressure %” value is 20% and 38% and 30% and 27% and 31% and 40% and 29% and 30.7%. In addition, in data set [6], the “degree of desensitization after induction of nitrate tolerance” value was “significantly lower” and the “degree of tolerance induced” value was “lesser degree of tolerance”. In data set [7], the “Exercise time” value is 8.6 ± 1.4 min and 8.9 ± 1.1 min; the “Max work tolerated (watt)” value was 144±36 watt and 148±36 watt; the “S-T (mm)” value was 1.5±0.7 mm and 1.8±0.9 mm; the “S-T Δ %” value is -29 (P<0.05) % and -25 (P<0.05) %. Further, in data set [7], the “anginal attacks, nitroglycerin consumption and arterial pressure” value was “noted reduction”; the “tolerance after chronic treatment” value is listed as “does not give rise to tolerance”.

For the compound `O=[N+]([O-])OCC(CO[N+](=O)[O-])O[N+](=O)[O-]` [NTG, nitroglycerin, reference compound], in data set [1] (Oryctolagus cuniculus, isolated rabbit heart, vasopressin-induced spasm, 10⁻⁵M, read-out: reduce coronary spasm (coronary perfusion pressure, CPP)), the inhibition at 10 µM came to 80%. In addition, the “cyclic GMP accumulation / increase” value in data set [2] is reported as “greater”.
